In patent US9102752B2, “Peptide vaccine for prevention and immunotherapy of dementia of the Alzheimer's type” (United Biomedical, Inc., priority 2013, dated 2015):

Assays:
[1] = tested on: anti-Aβ antibodies in sera of vaccinated patients; test: Epitope mapping, competitive binding inhibition EIA with patient sera (10-mer peptides, IC50); set-up: species or system human; Epitope mapping, fine specificity analysis, serum of subject P210: unit not given here; conditions: for Epitope mapping, fine specificity analysis, serum of subject P101: serum 16 wpi of vaccinated patient P101; for Epitope mapping, fine specificity analysis, serum of subject P102: serum 16 wpi of vaccinated patient P102; for Epitope mapping, fine specificity analysis, serum of subject P103: serum 16 wpi of vaccinated patient P103; for Epitope mapping, fine specificity analysis, serum of subject P104: serum 16 wpi of vaccinated patient P104; for Epitope mapping, fine specificity analysis, serum of subject P105: serum 16 wpi of vaccinated patient P105; for Epitope mapping, fine specificity analysis, serum of subject P106: serum 16 wpi of vaccinated patient P106; for Epitope mapping, fine specificity analysis, serum of subject P107: serum 16 wpi of vaccinated patient P107; for Epitope mapping, fine specificity analysis, serum of subject P108: serum 16 wpi of vaccinated patient P108; for Epitope mapping, fine specificity analysis, serum of subject P109: serum 16 wpi of vaccinated patient P109; for Epitope mapping, fine specificity analysis, serum of subject P201: serum 16 wpi of vaccinated patient P201; for Epitope mapping, fine specificity analysis, serum of subject P202: serum 16 wpi of vaccinated patient P202; for Epitope mapping, fine specificity analysis, serum of subject P203: serum 16 wpi of vaccinated patient P203; for Epitope mapping, fine specificity analysis, serum of subject P204: serum 16 wpi of vaccinated patient P204; for Epitope mapping, fine specificity analysis, serum of subject P205: serum 16 wpi of vaccinated patient P205; for Epitope mapping, fine specificity analysis, serum of subject P206: serum 16 wpi of vaccinated patient P206; for Epitope mapping, fine specificity analysis, serum of subject P207: serum 16 wpi of vaccinated patient P207; for Epitope mapping, fine specificity analysis, serum of subject P208: serum 16 wpi of vaccinated patient P208; for Epitope mapping, fine specificity analysis, serum of subject P209: serum 16 wpi of vaccinated patient P209; for Epitope mapping, fine specificity analysis, serum of subject P210: serum 16 wpi of vaccinated patient P210
[2] = tested on: anti-Aβ antibodies in macaque antisera; test: Specificity analysis (10-mer peptide ELISA) of antisera from Cynomolgus macaques; format: binding
[3] = antisera of macaques given UBI AD Vaccine 150 μg/dose, 9 WPI
[4] = antisera of macaques given UBI AD Vaccine 150 μg/dose, 15 WPI
[5] = antisera of macaques given UBI AD Vaccine 750 μg/dose, 9 WPI
[6] = antisera of macaques given UBI AD Vaccine 750 μg/dose, 15 WPI

Row | Substance | Epitope mapping, fine specificity analysis, serum of subject P101 [1] | Epitope mapping, fine specificity analysis, serum of subject P102 [1] | Epitope mapping, fine specificity analysis, serum of subject P103 [1] | Epitope mapping, fine specificity analysis, serum of subject P104 [1] | Epitope mapping, fine specificity analysis, serum of subject P105 [1] | Epitope mapping, fine specificity analysis, serum of subject P106 [1] | Epitope mapping, fine specificity analysis, serum of subject P107 [1] | Epitope mapping, fine specificity analysis, serum of subject P108 [1] | Epitope mapping, fine specificity analysis, serum of subject P109 [1] | Epitope mapping, fine specificity analysis, serum of subject P201 [1] | Epitope mapping, fine specificity analysis, serum of subject P202 [1] | Epitope mapping, fine specificity analysis, serum of subject P203 [1] | Epitope mapping, fine specificity analysis, serum of subject P204 [1] | Epitope mapping, fine specificity analysis, serum of subject P205 [1] | Epitope mapping, fine specificity analysis, serum of subject P206 [1] | Epitope mapping, fine specificity analysis, serum of subject P207 [1] | Epitope mapping, fine specificity analysis, serum of subject P208 [1] | Epitope mapping, fine specificity analysis, serum of subject P209 [1] | Epitope mapping, fine specificity analysis, serum of subject P210 [1] | Reactivity of antisera with peptide (specificity analysis ELISA) [2, 3] | further results
1 | 13 (EVKMDAEFRH; PROPEP (1)..(10) Abeta -4-6 or APP 770(E668-H677); listed as Homo sapiens) [compound 13] | 1 | 0 | 0 | 0 | 0 | 0 | 0 | 0 | 0 | 58 | 0 | 0 | 0 | 0 | 0 | 1 | 0 | 0 | 0 | 0.046 | Reactivity of antisera with peptide (specificity analysis ELISA) [2, 4]: 0.047; Reactivity of antisera with peptide (specificity analysis ELISA) [2, 5]: 0.054; Reactivity of antisera with peptide (specificity analysis ELISA) [2, 6]: 0.047
2 | 12 (SEVKMDAEFR; PEPTIDE (1)..(10) Abeta -5-5 or APP 770(S667-R676); listed as Homo sapiens) [compound 12] | 10 | 0 | 0 | 0 | 0 | 0 | 0 | 0 | 0 | 0 | 0 | 0 | 0 | 0 | 0 | 0 | 0 | 0 | 0 | 0.056 | Reactivity of antisera with peptide (specificity analysis ELISA) [2, 4]: 0.053; Reactivity of antisera with peptide (specificity analysis ELISA) [2, 5]: 0.054; Reactivity of antisera with peptide (specificity analysis ELISA) [2, 6]: 0.050
3 | 14 (VKMDAEFRHD; PEPTIDE (1)..(10) Abeta -3-7 or APP 770(V669-D678); listed as Homo sapiens) [compound 14] | 31 | 0 | 0 | 0 | 0 | 0 | 0 | 0 | 0 | 0 | 0 | 0 | 1 | 0 | 0 | 0 | 0 | 0 | 13 | 0.068 | Reactivity of antisera with peptide (specificity analysis ELISA) [2, 4]: 0.053; Reactivity of antisera with peptide (specificity analysis ELISA) [2, 5]: 0.061; Reactivity of antisera with peptide (specificity analysis ELISA) [2, 6]: 0.054
4 | 23 (SGYEVHHQKL; PEPTIDE (1)..(10) Abeta 8-17 or APP 770(S679-L688); listed as Homo sapiens) [compound 23] | 0 | 0 | 0 | 0 | 0 | 0 | 0 | 0 | 0 | 0 | 0 | 0 | 0 | 0 | 0 | 0 | 0 | 0 | 0 | 0.097 | Reactivity of antisera with peptide (specificity analysis ELISA) [2, 4]: 0.071; Reactivity of antisera with peptide (specificity analysis ELISA) [2, 5]: 0.077; Reactivity of antisera with peptide (specificity analysis ELISA) [2, 6]: 0.082
5 | 8 (TEEISEVKMD; PEPTIDE (1)..(10) Abeta -9-1 or APP 770(T663-D672); listed as Homo sapiens) [compound 8] | 0 | 0 | 0 | 0 | 0 | 0 | 0 | 0 | 0 | 0 | 0 | 0 | 0 | 0 | 0 | 0 | 0 | 0 | 0 | 0.075 | Reactivity of antisera with peptide (specificity analysis ELISA) [2, 4]: 0.084; Reactivity of antisera with peptide (specificity analysis ELISA) [2, 5]: 0.061; Reactivity of antisera with peptide (specificity analysis ELISA) [2, 6]: 0.078
6 | 28 (HHQKLVFFAE; PEPTIDE (1)..(10) Abeta 13-22 or APP 770(H684-E693); listed as Homo sapiens) [compound 28] | 0 | 0 | 0 | 0 | 0 | 0 | 0 | 0 | 0 | 0 | 0 | 0 | 0 | 0 | 0 | 0 | 0 | 0 | 0 | 0.044 | Reactivity of antisera with peptide (specificity analysis ELISA) [2, 4]: 0.052; Reactivity of antisera with peptide (specificity analysis ELISA) [2, 5]: 0.046; Reactivity of antisera with peptide (specificity analysis ELISA) [2, 6]: 0.032
7 | 16 (MDAEFRHDSG; PEPTIDE (1)..(10) Abeta -1-9 or APP 770(M671-G680); listed as Homo sapiens) [compound 16] | 420 | 12 | 0 | 0 | 0 | 0 | 0 | 0 | 0 | 9 | 116 | 0 | 17 | 0 | 0 | 2 | 6 | 0 | 121 | 0.056 | Reactivity of antisera with peptide (specificity analysis ELISA) [2, 4]: 0.061; Reactivity of antisera with peptide (specificity analysis ELISA) [2, 5]: 0.051; Reactivity of antisera with peptide (specificity analysis ELISA) [2, 6]: 0.056
